Results on eight compounds are retold here after publication PMC3610344, “Differential Cytotoxicity Responses by Dog and Rat Hepatocytes to Phospholipogenic Treatments” (Journal of Toxicology, 2013).

Series [1] relates to rat liver. In words: Preclinical in vivo toxicology studies in rat.
In series [2] the test system is rat hepatocytes. In words: Mitochondrial membrane potential (JC-1 fluorescence) in rat hepatocytes. The class given is cell-based, Han Wistar rats. The text has this: (§1) Primary rat hepatocytes were freshly isolated from Han Wistar rats at AstraZeneca, using the collagenase perfusion method (Selgen, PO, 1976). Primary dog hepatocytes were isolated at AstraZeneca, or purchased from CellzDirect Corp. (Durham, NC), which also uses a collagenase perfusion method. Cells were centrifuged and resuspended in hepatocyte culture media, consisting of Williams E basal media (Sigma-Aldrich, Inc., St. Louis, MO) 5% Hyclone fetal bovine serum (ThermoFisher Scientific Inc., Rockford, IL), 15 mM HEPES (Mediatech Inc., Manassas, VA), 100 units/mL penicillin/streptomycin, 200 μM l-glutamine, 1X ITS (insulin, transferrin, selenium solution from Mediatech Inc.), and 30 nM dexamethasone (Sigma-Aldrich). Cells were suspended at 2.5 × 10^5 cell/mL and added to BD Biocoat collagen I coated microtiter plates at 100 μL/well, for a final count of 25,000 cells/well. Selection criterion for use of initial isolates was 85% minimal viability. Cells were incubated at 37°C in a CO2 incubator for 4 h to allow for cell attachment. Media was aspirated and replaced with hepatocyte culture media without fetal bovine serum and supplemented with 150 μg/mL Matrigel collagen matrix (BD Inc.). Cells were incubated in a CO2 incubator for 24 h, the media was replaced with hepatocyte culture media, and the cells were incubated for an additional 24 h. Compounds were solubilized in DMSO, water, or ethanol to 1000X stock and then diluted to 1X in media. All conditions contained equal concentrations of vehicle.
JC-1 was added to cell cultures at a concentration of 5 μg/mL for 30 minutes to allow for cellular accumulation. Media were then aspirated and replaced with fresh media containing drugs of interest without JC-1. Fluorescence was detected using a spectrofluorometer. The ratio of red to green signals was calculated and converted to % control for graphing and analysis.

In series [3] the test system is rat hepatocytes. In words: Acridine orange lysosomal staining time course in rat hepatocytes. The class given is cell-based, Han Wistar rats.
Series [4] relates to rat hepatocytes. Briefly: cells. The conditions noted are these: for % survival: average ± std dev; for IC50: 24 h treatment, read-out: Survival IC50. The class given is cell-based.
The test system of series [5] is rat hepatocytes. In words: NBD-PE accumulation assay in rat hepatocytes. Type of series: cell-based, Han Wistar rats. The conditions noted are these: for NBD-PE accumulation, control activity: 300 μM, N = 1.
From the text: as §1
(§2) In a modification of the procedure described by Morelli et al., hepatocytes were treated with drugs diluted into culture media containing 12 μg/mL NBD-PE (N-(7-nitrobenz-2-oxa-1,3-diazol-4-yl)-1,2-dihexadecanoyl-sn-glycero-3-phosphoethanolamine, triethylammonium salt) for 24 hours. At the end of the treatment period, Sytox orange (100 nM Invitrogen Inc.) was added to cells for 20 minutes prior to fixation. This fluorescent dye stains only cells with compromised cell membranes thereby enabling their exclusion from NBD-PE cell quantitation by the Cellomics ArrayScan instrument. Media were aspirated, cells were washed with 1X PBS and fixed by the addition of 100 μL PBS containing 3.7% formaldehyde, and 1 μg/mL Hoechst dye. Fixation was allowed to proceed for 30 min at RT, and cells were washed three times with 1X PBS, and sealed for imaging. Labeled cells were analyzed using the Cellomics Arrayscan instrument (Cellomics Inc., Pittsburgh, PA) with version 3.5 equipment and software. The ArrayScan captures fluorescent images in the 3 channels relevant to this assay (Hoechst, TRITC for Sytox staining and FITC for NBD-PE staining) and performs automated image analysis to quantify cell nuclei, the number of dead cells, and NBD-PE dye fluorescent intensity. The analysis algorithms that enable cell versus well-based detection were purchased from Cellomics Inc. and are referred to as Cell Health Profiling (CHP) and Target Activation (TA) algorithms. […] NBD-PE peak signal was defined as the maximal response.

The test system of series [6] is dog hepatocytes. Briefly: Cell survival of primary dog hepatocytes (Cellomics Arrayscan). Type of series: cell-based. The following applies: for IC50: 24 h treatment.
From the text: as §1, §2

The test system of series [7] is dog liver. In words: Preclinical in vivo toxicology studies in dog.
In series [8] the test system is splenocyte. Also noted: method as in PMID 16463016. The conditions noted are these: in vitro, tested independently; cited from earlier work.
Series [9] relates to dog hepatocytes. In words: NBD-PE accumulation assay in dog hepatocytes. The following applies: for NBD-PE accumulation, control activity: 300 μM, 24 h, N = 1. The class given is cell-based.
From the text: as §1, with “Cells were incubated in a CO2 incubator for 24 h, the media was replaced with hepatocyte culture media, and the cells were incubated for an additional 24 h. Compounds were solubilized in DMSO, water, or ethanol to 1000X stock and then diluted to 1X in media. All conditions contained equal concentrations of vehicle.” left out
In a modification of the procedure described by Morelli et al., hepatocytes were treated with drugs diluted into culture media containing 12 μg/mL NBD-PE (N-(7-nitrobenz-2-oxa-1,3-diazol-4-yl)-1,2-dihexadecanoyl-sn-glycero-3-phosphoethanolamine, triethylammonium salt) for 24 hours. […] This fluorescent dye stains only cells with compromised cell membranes thereby enabling their exclusion from NBD-PE cell quantitation by the Cellomics ArrayScan instrument. […] Labeled cells were analyzed using the Cellomics Arrayscan instrument (Cellomics Inc., Pittsburgh, PA) with version 3.5 equipment and software. The ArrayScan captures fluorescent images in the 3 channels relevant to this assay (Hoechst, TRITC for Sytox staining and FITC for NBD-PE staining) and performs automated image analysis to quantify cell nuclei, the number of dead cells, and NBD-PE dye fluorescent intensity. […]

Series [10] concerns isolated rat mitochondria. Also noted: method as in PMID 17917797. The following applies: cited from earlier work.
[11] abbreviates: preclinical toxicology studies (1-month for compound A), unpublished observations / data not shown.
Setting [12] is: Rattus norvegicus, Hepatocyte, 24 h.
The mark [13] stands for this setting: Canis lupus familiaris, Hepatocyte, 24 h.
Where [14] appears, read: 1-month toxicology study, comparable plasma exposures, unpublished observations.

Each structure is given as a SMILES string. Like-named read-outs stand apart in the source and are kept apart here. Where only a bound is given, the exact number is not on record here.

A word on the IC50: it is the concentration that gives 50% inhibition. One may read the EC50 as the concentration at which the effect is half-maximal. In the case of `Cc1ccc(N2CCN(C)CC2)c2c1CC[C@@H](NC(=O)c1ccc(N3CCOCC3)cc1)C2` [NMTMB, N-[(2R)-5-methyl-8-(4-methylpiperazin-1-yl)tetralin-2-yl]-4-morpholino-benzamide], the “Phospholipidosis (PLD) in vivo” value in series [1] (setting [11]) and in series [7] (setting [11]) was “confirmed multiorgan in vivo phospholipogenics” in each case. For the same compound, in series [2] (100 μM), the “Time to maximum hyperpolarization” value is not above 2 h. Besides, the “Time to mitochondria hyperpolarization” value in [2] (100 μM) is on record as not above 1 h. In series [2] (300 μM), the Mitochondrial polarization status entry is “mitochondria depolarization was observed within the first hour”. In addition, the “Mitochondrial polarization status with Baf cotreatment” value in series [2] (300 μM NMTMB plus 30 nM Baf, by 1 h) is “marked shift from mitochondrial depolarization to a hyperpolarized state”. Further, the AO spot count result in [3] (100 μM, up to 8 h) was “maintained or exceeded control levels”; in series [3] (300 μM, by 4 h), approximately 0%. Moreover, the “Decline of AO spot count compared to control” value in [3] (300 μM, within 30 minutes) is approximately 50%. In addition, in [4] (100 μM, 8 h treatment), the “Drop in cell survival” value stood at 40%. The Hepatocytes surviving in series [4] (100 μM, 24 hr) was ~ 80%. The “% survival” value in [4] (300 μM NMTMB alone) came to 9.3 ± 4%; in [4] (300 μM NMTMB cotreated with PADK) it was 51 ± 8.5%. In [4] (300 μM, 2 h), the “Survival compared to control” value is on record as 20%. Moreover, the Cell death result in series [4] (300 μM, 4 h) is “cell death was complete”; in [6] (100 μM, 24 hr) it was “complete cell death”. The 50% inhibitory concentration (IC50) in series [4] stood at 148 ± 41 µM; in series [4] (setting [12]), 159 µM; in series [6] (setting [13]), 37 ± 13 µM. The NBD-PE accumulation in series [5] (50 μM, 24 h) was found to be 4 fold vehicle control. Also, the EC50 in series [5] (Hepatocyte, approximate, estimated from left-hand portion of bell-shaped curve) is approximately 65 µM. The Cells dead in [6] (50 μM, 24 h) is reported as ~ 70%.

`COc1cc2c(c(N3CCN(C)CC3)c1)O[C@@H](C(=O)Nc1ccc(N3CCOCC3)c(F)c1)CC2` [B]: the “Phospholipogenic response in splenocyte model” value (shortened to “Phospholipogenic response”) in series [8] is listed as “phospholipogenic”. The concentration for half-maximal inhibition (IC50) in series [4] (setting [12]) is more than 300 µM; in series [6] (setting [13]) it was 153 ± 63 µM.

For the compound `CO/C1=C\C(C)=C\[C@@H](C)[C@@H](O)[C@@H](C)C/C(C)=C/C=C/[C@H](OC)[C@@H]([C@@H](C)[C@@H](O)[C@H](C)[C@@]2(O)C[C@@H](O)[C@H](C)[C@@H](C(C)C)O2)OC1=O` [Baf, Bafilomycin A1, reference compound], the “Increase in control NBD-PE fluorescent staining” value in [9] (100 nM Baf) and in [5] (100 nM Baf) was 2 fold each time. Besides, the “Minimal concentration affecting mitochondrial functions (potassium uptake, swelling, loss of membrane potential, uncoupling)” value in series [10] is reported as 50 nM.

As to `O=C(O)Cc1ccccc1Nc1c(Cl)cccc1Cl` [Diclofenac, reference compound], the “Phospholipogenic response” value in [8] is listed as “negative”. The figures for the IC50 in series [4] (setting [12]) and in series [6] (setting [13]) were 832 µM and 656 µM, respectively.

Consider `COc1cc2c(c(N3CCN(C)CC3)c1)O[C@@H](C(=O)Nc1ccc(N3CCOCC3)cc1)CC2` [compound A], for which the “Centrilobular necrosis of liver” value in [1] (setting [14]) and in [7] (setting [14]) was “only dog had concomitant centrilobular necrosis” in each case. Further, the IC50 was more than 450 µM in series [4] (Hepatocyte) and 298 ± 22 µM in [6] (Canis lupus familiaris, Hepatocyte).

Turning to `CCN(CCO)CCCC(C)Nc1ccnc2cc(Cl)ccc12` (centres unmarked) [Hydroxychloroquine, reference compound], the 50% inhibitory concentration (IC50) is more than 300 µM in series [4], 220 µM in series [4] (setting [12]), 159 µM in [6] and 90 µM in [6] (setting [13]). Moreover, the Change in survival in series [4] (control condition without Baf, 24 h) is reported as 25–35%.

With `Nc1ccc(N2CCOCC2)cc1` [compound D], the “NBD-PE accumulation, control activity” value was 140% in series [9] and 101% in [5] (24 h). Also, the “Phospholipogenic response” value in series [8] was “negative”. Also, the IC50 in [4] (setting [12]) and in series [6] (setting [13]) was more than 300 µM each time.

Consider `CCCc1cccc2c(N)c(C(=O)NCC3CC3)nnc12` [compound C], for which the “NBD-PE accumulation, control activity” value is listed as 121% in series [9] and 95% in [5] (24 h). Moreover, the “Phospholipogenic response” value in series [8] was “negative”. The IC50 in series [4] (setting [12]) and in series [6] (setting [13]) was more than 300 µM each time.
